Series [1] is described as follows: Half life in Sprague-Dawley rat at 1 mg/kg, iv and 5 mg/kg, po. To be noted: in vivo. The series is classed as ADME, organism-based.
Series [2] can be described thus: Clearance in Sprague-Dawley rat at 1 mg/kg, iv and 5 mg/kg, po. The series is classed as ADME, organism-based. To be noted: in vivo.
Series [3] can be described thus: Oral bioavailability in Sprague-Dawley rat at 5 mg/kg. The format is ADME, organism-based. To be noted: in vivo.
A short description of series [4]: Ratio of drug level in brain to plasma in Sprague-Dawley rat at 10 mg/kg, ip after 1 hr. The series is classed as ADME, organism-based. Also on record: dose 10 mg/kg, route intraperitoneal. To be noted: brain and plasma, read-out: BPR.
For series [5], the target named is Histamine H3 receptor (Rattus norvegicus, UniProt Q9QYN8). Nature of the series: Displacement of [3H]NAMH from rat cloned […] expressed in CHO cells. The series is classed as cell-based. In general terms: Loss of bound radioactivity is the signal in a displacement assay; it reports binding, not function.
In series [6] the target is Histamine H3 receptor (Homo sapiens, UniProt Q9Y5N1). Nature of the series: Displacement of [3H]NAMH from human cloned […] expressed in CHO cells. The series is classed as cell-based.
Histamine H3 receptor (Homo sapiens, UniProt Q9Y5N1), sequence (Q9Y5N1 whole entry): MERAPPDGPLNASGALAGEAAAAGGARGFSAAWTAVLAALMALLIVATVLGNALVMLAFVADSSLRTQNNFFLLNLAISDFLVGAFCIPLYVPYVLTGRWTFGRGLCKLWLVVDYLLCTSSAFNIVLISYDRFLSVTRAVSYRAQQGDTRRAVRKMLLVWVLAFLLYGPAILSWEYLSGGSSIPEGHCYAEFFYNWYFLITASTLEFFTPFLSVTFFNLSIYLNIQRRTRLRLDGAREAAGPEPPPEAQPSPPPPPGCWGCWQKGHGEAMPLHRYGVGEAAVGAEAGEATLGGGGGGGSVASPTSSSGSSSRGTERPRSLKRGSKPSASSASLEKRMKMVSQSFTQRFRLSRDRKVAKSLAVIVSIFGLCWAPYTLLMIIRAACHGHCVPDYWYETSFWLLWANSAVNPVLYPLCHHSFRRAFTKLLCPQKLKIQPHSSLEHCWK

Histamine H3 receptor (Rattus norvegicus, UniProt Q9QYN8), sequence (Q9QYN8 whole entry): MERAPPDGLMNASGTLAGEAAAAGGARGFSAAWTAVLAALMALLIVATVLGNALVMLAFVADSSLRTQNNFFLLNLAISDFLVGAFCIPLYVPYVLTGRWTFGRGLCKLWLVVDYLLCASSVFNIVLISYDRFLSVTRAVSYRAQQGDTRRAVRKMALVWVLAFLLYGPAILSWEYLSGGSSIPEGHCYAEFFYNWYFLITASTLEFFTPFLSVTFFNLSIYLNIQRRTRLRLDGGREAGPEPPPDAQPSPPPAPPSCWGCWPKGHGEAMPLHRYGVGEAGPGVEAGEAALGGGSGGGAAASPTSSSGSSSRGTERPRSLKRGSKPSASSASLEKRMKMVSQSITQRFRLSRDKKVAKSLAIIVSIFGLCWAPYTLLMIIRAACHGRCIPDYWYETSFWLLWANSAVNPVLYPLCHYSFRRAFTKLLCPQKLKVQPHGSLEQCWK

`C[C@H]1CCCN1CCCOc1ccc(-c2cnn(-c3ccccn3)c(=O)c2)cc1`: the half-life – broadly, the time needed for the level to fall by half in the phase considered – in series [1] was 2.8 h. Besides, in series [2], the clearance stood at 45 mL/min/kg. Further, the bioavailability – broadly, dose-corrected exposure relative to a reference, in per cent – in series [3] turned out to be 52%. The Kp at 1 h in series [4] was determined as 1.7.
As for `C[C@@H]1CCCN1CCCOc1ccc(-c2cn[nH]c(=O)c2)cc1`, in series [4], the Kp at 1 h amounted to 1.8.
Take `Cc1cccnc1-n1ncc(-c2ccc(OCCCN3CCC[C@H]3C)cc2)cc1=O`: the half-life in series [1] was 1.8 h. Also, the clearance in series [2] was 34 mL/min/kg. In series [3], this molecule gave a bioavailability of 30%. The Ki (usually a dissociation constant, usually derived from enzyme kinetics or from competition with a known ligand) on Histamine H3 receptor [5] came to 8.6 nM; at Histamine H3 receptor [6], 2.5 nM. The Kp at 1 h in series [4] came out at 0.2.
In series [1], `Cc1nn(C)c(=O)cc1-c1ccc(OCCCN2CCCCC2)cc1` gave a half-life of 1.6 h. Also, the clearance in series [2] was 48 mL/min/kg. For the same molecule, in series [3], the bioavailability came to 69%. Further, the Ki on Histamine H3 receptor [5] was 18 nM; on Histamine H3 receptor [6], 8.9 nM. In series [4], the Kp at 1 h is 2.4.
As to `O=c1cc(-c2ccc(OCCCN3CCCCC3)cc2)cnn1-c1ccccn1`, the half-life in series [1] is 1.6 h. For the same molecule, in series [2], the clearance is 11 mL/min/kg. The same molecule registered a bioavailability in series [3] of 26%. In addition, the figures for the Ki at Histamine H3 receptor [5] and at Histamine H3 receptor [6] were 16 nM and 7.8 nM, respectively. Moreover, the Kp at 1 h in series [4] is 1.6.
In turn, `Cc1nn(-c2ccccn2)c(=O)cc1-c1ccc(OCCCN2CCC[C@H]2C)cc1` showed a half-life in series [1] of 1.3 h. In addition, the clearance in series [2] amounted to 13 mL/min/kg. Further, in series [3], the bioavailability amounted to 15%. Besides, the Ki is 5 nM at Histamine H3 receptor [5] and 1.7 nM on Histamine H3 receptor [6]. For the same molecule, the Kp at 1 h in series [4] came to 0.7.
Molecule `CC(C)n1ncc(-c2ccc(OCCCN3CCC[C@H]3C)cc2)cc1=O` gave a half-life in series [1] of 0.3 h. Further, the clearance in series [2] was found to be 12 mL/min/kg. For the same molecule, the bioavailability in series [3] is 1%. The inhibition constant Ki at Histamine H3 receptor [5] is 7 nM; at Histamine H3 receptor [6] it was 2.7 nM. Also, the Kp at 1 h in series [4] turned out to be 5.1.
In the case of `Cc1cccnc1-n1nc(C)c(-c2ccc(OCCCN3CCC[C@H]3C)cc2)cc1=O`, the half-life in series [1] was 1.4 h. The molecule further gave a clearance in series [2] of 7 mL/min/kg. The molecule also yielded a bioavailability in series [3] of 20%. The values for the Ki on Histamine H3 receptor [5] and at Histamine H3 receptor [6] were 17 nM and 3 nM, respectively. In addition, the Kp at 1 h in series [4] was 0.5.
`Cc1cccc(-n2ncc(-c3ccc(OCCCN4CCC[C@H]4C)cc3)cc2=O)n1` showed a half-life in series [1] of 2.2 h. For the same molecule, the clearance in series [2] was 23 mL/min/kg. In series [3], this molecule showed a bioavailability of 12%. Besides, the Ki at Histamine H3 receptor [5] came to 4.4 nM; on Histamine H3 receptor [6], 1.8 nM. In series [4], the Kp at 1 h came to 1.
In series [1], `O=c1cc(-c2ccc(OCCCN3CCCCC3)cc2)cn[nH]1` showed a half-life of 1.6 h. This molecule also had a clearance in series [2] of 24 mL/min/kg. The bioavailability in series [3] was found to be 42%. In addition, the inhibition constant Ki is 28 nM on Histamine H3 receptor [5] and 19 nM at Histamine H3 receptor [6]. Further, the Kp at 1 h in series [4] was 3.

The values are drawn from ChEMBL document CHEMBL1955733, “Optimization of 5-pyridazin-3-one phenoxypropylamines as potent, selective histamine H₃ receptor antagonists with potent cognition enhancing activity” (J Med Chem, 2012).
